Experimental data: publication PMC9841589, “Identification of 2-Aminoacyl-1,3,4-thiadiazoles as Prostaglandin E2 and Leukotriene Biosynthesis Inhibitors” (ACS Medicinal Chemistry Letters, 2022)

Target: T1, COX-2 (Homo sapiens, UniProt P35354)
T1 sequence (P35354 18-604): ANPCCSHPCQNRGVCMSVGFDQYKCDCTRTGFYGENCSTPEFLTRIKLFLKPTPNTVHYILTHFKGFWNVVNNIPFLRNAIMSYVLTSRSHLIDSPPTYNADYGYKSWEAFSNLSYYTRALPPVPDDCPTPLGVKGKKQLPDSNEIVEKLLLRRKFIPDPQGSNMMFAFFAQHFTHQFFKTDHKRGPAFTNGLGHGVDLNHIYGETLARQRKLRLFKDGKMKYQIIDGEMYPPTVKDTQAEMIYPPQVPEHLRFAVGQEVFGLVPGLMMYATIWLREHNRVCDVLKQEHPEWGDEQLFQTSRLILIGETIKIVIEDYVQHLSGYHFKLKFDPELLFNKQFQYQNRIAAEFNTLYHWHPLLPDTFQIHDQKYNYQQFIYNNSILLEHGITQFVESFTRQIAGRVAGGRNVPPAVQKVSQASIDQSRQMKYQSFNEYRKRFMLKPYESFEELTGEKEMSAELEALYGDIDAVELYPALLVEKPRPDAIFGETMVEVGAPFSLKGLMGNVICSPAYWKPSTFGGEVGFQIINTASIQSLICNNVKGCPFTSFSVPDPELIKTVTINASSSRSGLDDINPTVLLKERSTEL
Assay: Cell-free COXs activity assay, COX-2
Format: biochemical
Settings: percentage of uninhibited control (100%), n = 3, n.i.: no inhibitory activity observed, read-out: COX-2 residual activity (%)
Description: Cell-free COXs activity assay
Isolated COX-1 (ovine) and COX-2 (human) were used for the evaluation of the activity of test compounds 3, 6, 7, and 9 on cyclooxygenases. COXs were diluted using Tris buffer (100 mM, pH = […]
8) plus 5 mM glutathione, 100 µM EDTA and 5 µM hemoglobin) to a final concentration of 50 U/mL for COX-1 and 20 U/mL for COX-2, and pre-incubated with test compounds 3, 6, 7, and 9 (10 µM) or vehicle (0.1% DMSO) over 5 min at rt. After 1 min at 37 °C, reactions were started after addition of arachidonic acid to a final concentration of 5 µM for COX-1 and 2 µM for COX-2. After 5 min at 37 °C, 1 mL of ice-cold methanol was added for stopping the reactions on ice. Then, PGB 1 as internal standard and 530 µl PBS plus HCl were added, and solid-phase extraction was performed as reported before.4-6, 17-19 COXs product formation (12-HHT) was determined using RP-HPLC. 4-6, 17-19 Indomethacin (10 µM) and celecoxib (5 µM) were used as reference drugs.
Expression, purification and activity assay of human recombinant sEH
Human recombinant sEH was expressed in Sf9 cells and was infected using a baculovirus, provided by Dr. B. Hammock, University of California, Davis, CA. After 72 hours, cells were pelleted and sonicated (3 × 10 sec) at 4 °C in lysis buffer (50 mM NaHPO 4, pH = 8, 300 mM NaCl, 10% glycerol, 1 mM EDTA, 1 mM phenylmethanesulfonyl fluoride, 10 µg/mL of leupeptin, and 60 µg/mL of soybean trypsin inhibitor). Lysates were centrifuged over 60 min at 4 °C (100,000 × g), and supernatants were collected and submitted to a benzylthio-sepharose-affinity chromatography for sEH purification by elution with 4-fluorochalcone oxide in PBS plus 1 mM DTT and 1 mM EDTA.720 […]
DMSO) for 15 min at rt. 50 µM 3-phenyl-cyano(6-methoxy-2-naphthalenyl)methyl ester-2-oxiraneacetic acid (PHOME), a non-fluorescent compound, was added for starting the reaction.
PHOME is enzymatically converted into a fluorescent compound, 6-methoxy-naphtaldehyde, detectable by using a spectrofluorometer setting λ em = 465 nm, λ ex = 330 nm. After 60 min, ZnSO 4

Structure (SMILES)	remaining activity at 10 µM [%]
O=C(Nc1nnc(-c2ccc(-c3cccc(O)c3)cc2)s1)c1ccccc1Br [compound 3]	65.4
Nc1ccccc1-c1ccc(-c2nnc(NC(=O)c3ccccc3Br)s2)cc1 [compound 7]	194
Cc1cc(C(=O)Nc2nnc(-c3ccc(-c4ccccc4N)cc3)s2)cc(Cl)n1 [compound 6]	83.1
Nc1ccccc1-c1ccc(-c2nnc(NC(=O)c3c(Cl)ccnc3Cl)s2)cc1 [compound 9]	72.7
